Each block holds one compound with its values, some of them ahead of it. Where a SMILES comes first, the peptide text is derived from it. [ ]: non-standard residue; d: D form. The star is where a group is joined. Pyrazinecarbonyl = O=C(c1cnccn1)*; Hyp = O=C(O)[C@@H]1C[C@@H](O)CN1; Abu = CC[C@H](N)C(=O)O; Bn = c1ccc(C*)cc1
Columns and labels:
Plasma kallikrein = Plasma kallikrein (Homo sapiens, UniProt P03952); test: Inhibition of kallikrein
Coagulation factor XII = Coagulation factor XII (Homo sapiens, UniProt P00748); test: Inhibition of factor 12a
[1] = biological target: T1, Trifunctional purine biosynthetic protein adenosine-3 (Homo sapiens, UniProt P22102); test: Inhibition of human glycinamide ribonucleotide transformylase
T1 sequence (P22102 whole entry): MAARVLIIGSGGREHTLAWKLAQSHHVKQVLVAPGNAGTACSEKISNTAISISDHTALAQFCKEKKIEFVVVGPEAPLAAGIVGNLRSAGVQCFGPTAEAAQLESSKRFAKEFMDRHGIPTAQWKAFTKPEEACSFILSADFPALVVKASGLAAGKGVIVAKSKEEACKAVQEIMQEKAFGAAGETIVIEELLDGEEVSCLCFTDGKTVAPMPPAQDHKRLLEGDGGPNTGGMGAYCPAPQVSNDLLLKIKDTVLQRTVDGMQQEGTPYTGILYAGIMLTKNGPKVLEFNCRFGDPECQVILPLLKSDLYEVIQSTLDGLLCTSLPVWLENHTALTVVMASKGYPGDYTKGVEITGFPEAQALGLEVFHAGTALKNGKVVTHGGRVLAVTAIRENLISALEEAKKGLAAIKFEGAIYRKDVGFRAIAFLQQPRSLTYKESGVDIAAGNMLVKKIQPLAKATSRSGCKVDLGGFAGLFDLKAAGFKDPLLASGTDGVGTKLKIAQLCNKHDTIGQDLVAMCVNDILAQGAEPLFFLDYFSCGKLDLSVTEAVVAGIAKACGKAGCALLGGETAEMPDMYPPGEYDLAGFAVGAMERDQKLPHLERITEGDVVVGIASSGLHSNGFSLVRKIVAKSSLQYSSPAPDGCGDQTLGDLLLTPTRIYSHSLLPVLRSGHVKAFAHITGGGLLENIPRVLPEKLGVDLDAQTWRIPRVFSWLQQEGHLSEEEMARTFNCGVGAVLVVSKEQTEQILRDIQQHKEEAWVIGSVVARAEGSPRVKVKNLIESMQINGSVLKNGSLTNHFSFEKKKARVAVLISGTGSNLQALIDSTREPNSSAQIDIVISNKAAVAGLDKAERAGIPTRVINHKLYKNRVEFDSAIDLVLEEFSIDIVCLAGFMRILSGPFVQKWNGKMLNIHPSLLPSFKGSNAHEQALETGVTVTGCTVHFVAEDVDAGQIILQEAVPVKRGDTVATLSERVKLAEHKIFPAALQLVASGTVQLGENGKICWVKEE

[2] = Inhibition of calpain 1 at 10 uM
[3] = Selectivity for rat FAAH over carboxylesterase 1 lipase
[4] = Selectivity for rat FAAH over monoacylglycerol lipase
[5] = Selectivity for rat FAAH over lipoprotein lipase
[6] = Selectivity for rat FAAH over triacylglycerol hydrolase
[7] = biological target: T2, Fatty-acid amide hydrolase 1 (Rattus norvegicus, UniProt P97612)
T2 sequence (P97612 whole entry): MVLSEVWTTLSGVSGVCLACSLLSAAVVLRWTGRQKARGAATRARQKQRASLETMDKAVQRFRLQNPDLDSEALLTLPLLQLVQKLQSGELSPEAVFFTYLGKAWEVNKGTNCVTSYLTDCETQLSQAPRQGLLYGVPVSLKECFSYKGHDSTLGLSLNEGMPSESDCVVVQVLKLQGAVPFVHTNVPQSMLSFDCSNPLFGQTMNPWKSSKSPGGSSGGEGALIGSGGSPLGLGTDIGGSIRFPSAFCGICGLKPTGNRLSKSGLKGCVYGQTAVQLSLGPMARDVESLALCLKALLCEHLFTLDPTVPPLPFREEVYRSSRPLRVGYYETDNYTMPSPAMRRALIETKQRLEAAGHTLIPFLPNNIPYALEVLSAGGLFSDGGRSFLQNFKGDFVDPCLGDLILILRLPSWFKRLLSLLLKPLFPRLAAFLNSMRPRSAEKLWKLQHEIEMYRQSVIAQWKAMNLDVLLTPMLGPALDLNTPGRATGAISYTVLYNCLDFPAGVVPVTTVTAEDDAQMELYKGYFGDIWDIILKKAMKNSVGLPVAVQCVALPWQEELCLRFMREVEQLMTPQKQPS

[8] = Selectivity for human alpha-thrombin over factor 10a
[9] = Inhibition of human beta-tryptase
Homo sapiens [10] = organism: Homo sapiens; test: Selectivity for human alpha-thrombin over human trypsin
Homo sapiens [11] = organism: Homo sapiens; test: Selectivity for human beta-tryptase over human alpha thrombin
[12] = Inhibition of HCV NS34A protease; parameters: species or system Hepacivirus hominis
Chymase = Chymase (Homo sapiens, UniProt P23946)
Plasminogen = Plasminogen (Homo sapiens, UniProt P00747); test: Inhibition of plasmin
[13] = biological target: Tissue-type plasminogen activator (Homo sapiens, UniProt P00750); test: Inhibition of tPA
Coagulation factor X = Coagulation factor X (Homo sapiens, UniProt P00742); test: Inhibition of human factor 10a
Coagulation factor VII = Coagulation factor VII (Homo sapiens, UniProt P08709); test: Inhibition of human factor 7a
Prothrombin = Prothrombin (Homo sapiens, UniProt P00734); test: Inhibition of human alpha-thrombin
Platelet = test: Antithrombotic activity assessed as inhibition of alpha-thrombin-induced human platelet aggregation; assay type: functional, cell-based
[14] = Selectivity for human alpha-thrombin over plasmin
[15] = Selectivity for human alpha-thrombin over tissue plasminogen activator
[16] = Selectivity for human alpha-thrombin over bovine trypsin
[17] = Selectivity for human alpha-thrombin over uPA
Complement factor B = Complement factor B (Homo sapiens, UniProt P00751); test: Inhibition of C3 convertase
[18] = Oral bioavailability in rat; assay type: ADME, organism-based; conditions: in vivo
[19] = Selectivity for human chymase over bovine chymotrypsin
[20] = Selectivity for human chymase over cathepsin G
[21] = Inhibition of Trypanosoma cruzi prolyl endopeptidase Tc80
Homo sapiens [22] = organism: Homo sapiens; test: Selectivity for human recombinant cathepsin S over human cathepsin B
Homo sapiens [23] = organism: Homo sapiens; test: Selectivity for human recombinant cathepsin S over human recombinant K
Homo sapiens [24] = organism: Homo sapiens; test: Selectivity for human recombinant cathepsin S over human recombinant L
[25] = Selectivity for human neutrophil elastase over chymotrypsin
[26] = Selectivity for human neutrophil elastase over trypsin
[27] = Selectivity for human neutrophil elastase over cathepsinn G
Canis familiaris = test: Antithrombotic activity in iv dosed dog areteriovenous shunt model assessed as inhibition of thrombus accumulation; assay type: functional; conditions: Canis lupus familiaris
[28] = Selectivity for human beta-tryptase over kallikrein
Trypsin = Trypsin (Homo sapiens, UniProt P07477+P07478+P35030); test: Inhibition of human trypsin at 100 uM; assay type: protein assay
[29] = Tmax in rat at 3 mg/kg, po; assay type: ADME, organism-based; parameters: dose 3 mg/kg, route oral; conditions: in vivo
[30] = Oral bioavailability in rat at 3 mg/kg; assay type: ADME, organism-based; conditions: in vivo
Hamster = test: Efficacy in po dosed hamster acute lung injury model; assay type: functional; conditions: Cricetinae
[31] = Inhibition of Staphylococcus aureus methionine aminopeptidase
[32] = Selectivity for human beta-tryptase over uPA
[33] = Selectivity for human beta-tryptase over trypsin
[34] = Selectivity for human beta-tryptase over plasmin

Coagulation factor X, sequence (P00742 41-179 limits assumed): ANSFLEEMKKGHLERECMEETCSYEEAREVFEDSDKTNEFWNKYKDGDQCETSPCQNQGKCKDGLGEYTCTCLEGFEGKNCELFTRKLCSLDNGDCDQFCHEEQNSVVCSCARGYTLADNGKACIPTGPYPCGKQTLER
Coagulation factor X, sequence (P00742 235-488 limits assumed): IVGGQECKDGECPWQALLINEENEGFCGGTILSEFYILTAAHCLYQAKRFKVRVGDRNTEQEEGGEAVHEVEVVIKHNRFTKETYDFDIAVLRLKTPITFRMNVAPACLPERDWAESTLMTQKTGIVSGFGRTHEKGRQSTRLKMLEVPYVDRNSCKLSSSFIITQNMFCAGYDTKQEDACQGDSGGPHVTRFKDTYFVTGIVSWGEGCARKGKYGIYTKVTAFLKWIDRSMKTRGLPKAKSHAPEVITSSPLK
Plasma kallikrein, sequence (P03952 20-390 limits assumed): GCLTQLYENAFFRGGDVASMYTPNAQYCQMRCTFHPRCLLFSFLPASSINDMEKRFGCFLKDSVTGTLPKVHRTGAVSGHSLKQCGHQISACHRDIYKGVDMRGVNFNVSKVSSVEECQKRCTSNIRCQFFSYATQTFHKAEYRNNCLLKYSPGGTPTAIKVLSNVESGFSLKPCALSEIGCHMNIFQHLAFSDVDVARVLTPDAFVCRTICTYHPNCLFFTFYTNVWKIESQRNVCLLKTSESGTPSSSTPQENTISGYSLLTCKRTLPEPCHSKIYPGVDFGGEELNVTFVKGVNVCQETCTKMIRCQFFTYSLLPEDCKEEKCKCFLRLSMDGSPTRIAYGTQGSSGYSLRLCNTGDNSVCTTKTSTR
Plasma kallikrein, sequence (P03952 391-638 limits assumed): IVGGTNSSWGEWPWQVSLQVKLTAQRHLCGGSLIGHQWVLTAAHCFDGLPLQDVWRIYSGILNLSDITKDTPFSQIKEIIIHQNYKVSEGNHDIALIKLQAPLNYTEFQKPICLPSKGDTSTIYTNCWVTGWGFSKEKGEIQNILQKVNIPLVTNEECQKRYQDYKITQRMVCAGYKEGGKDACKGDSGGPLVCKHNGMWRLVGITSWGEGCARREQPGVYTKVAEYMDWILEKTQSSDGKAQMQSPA
Chymase, sequence (P23946 whole entry): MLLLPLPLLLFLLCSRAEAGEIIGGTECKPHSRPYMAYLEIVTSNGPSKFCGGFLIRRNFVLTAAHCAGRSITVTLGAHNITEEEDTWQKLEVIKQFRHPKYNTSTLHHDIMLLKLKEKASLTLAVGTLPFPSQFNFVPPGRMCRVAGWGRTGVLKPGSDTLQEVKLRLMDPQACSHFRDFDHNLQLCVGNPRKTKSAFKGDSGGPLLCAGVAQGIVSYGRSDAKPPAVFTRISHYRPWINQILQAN
Coagulation factor VII, sequence (P08709 61-212 limits assumed): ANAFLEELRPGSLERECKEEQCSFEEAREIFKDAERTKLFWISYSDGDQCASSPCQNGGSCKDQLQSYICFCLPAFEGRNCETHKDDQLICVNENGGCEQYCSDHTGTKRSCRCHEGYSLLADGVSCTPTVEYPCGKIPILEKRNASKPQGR
Coagulation factor VII, sequence (P08709 213-466 limits assumed): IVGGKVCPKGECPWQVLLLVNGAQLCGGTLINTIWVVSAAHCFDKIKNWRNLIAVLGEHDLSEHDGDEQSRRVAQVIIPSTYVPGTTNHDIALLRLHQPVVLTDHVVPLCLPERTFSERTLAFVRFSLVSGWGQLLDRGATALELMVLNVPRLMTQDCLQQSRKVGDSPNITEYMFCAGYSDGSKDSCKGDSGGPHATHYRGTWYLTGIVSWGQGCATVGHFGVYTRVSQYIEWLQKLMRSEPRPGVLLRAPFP
Plasminogen, sequence (P00747 97-580 limits assumed): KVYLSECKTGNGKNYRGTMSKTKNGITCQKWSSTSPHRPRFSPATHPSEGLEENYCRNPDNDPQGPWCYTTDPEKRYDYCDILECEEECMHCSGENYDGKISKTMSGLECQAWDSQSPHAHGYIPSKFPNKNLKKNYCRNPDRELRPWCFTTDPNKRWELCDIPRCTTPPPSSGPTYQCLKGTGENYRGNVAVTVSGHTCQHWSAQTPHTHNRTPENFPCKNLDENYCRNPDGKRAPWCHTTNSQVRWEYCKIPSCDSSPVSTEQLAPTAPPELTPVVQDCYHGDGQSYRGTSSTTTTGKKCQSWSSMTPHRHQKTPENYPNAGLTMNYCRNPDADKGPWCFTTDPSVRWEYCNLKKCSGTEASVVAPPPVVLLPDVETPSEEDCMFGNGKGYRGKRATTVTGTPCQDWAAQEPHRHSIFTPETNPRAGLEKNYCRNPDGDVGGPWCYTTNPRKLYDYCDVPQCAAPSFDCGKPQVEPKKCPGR
Plasminogen, sequence (P00747 581-810 limits assumed): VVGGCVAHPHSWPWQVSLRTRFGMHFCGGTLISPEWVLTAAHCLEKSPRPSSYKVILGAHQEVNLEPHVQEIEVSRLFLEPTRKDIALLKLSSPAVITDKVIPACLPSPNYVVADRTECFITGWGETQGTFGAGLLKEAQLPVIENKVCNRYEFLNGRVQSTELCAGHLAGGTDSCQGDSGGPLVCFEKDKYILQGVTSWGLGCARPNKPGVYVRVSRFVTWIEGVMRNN
Coagulation factor XII, sequence (P00748 20-372 limits assumed): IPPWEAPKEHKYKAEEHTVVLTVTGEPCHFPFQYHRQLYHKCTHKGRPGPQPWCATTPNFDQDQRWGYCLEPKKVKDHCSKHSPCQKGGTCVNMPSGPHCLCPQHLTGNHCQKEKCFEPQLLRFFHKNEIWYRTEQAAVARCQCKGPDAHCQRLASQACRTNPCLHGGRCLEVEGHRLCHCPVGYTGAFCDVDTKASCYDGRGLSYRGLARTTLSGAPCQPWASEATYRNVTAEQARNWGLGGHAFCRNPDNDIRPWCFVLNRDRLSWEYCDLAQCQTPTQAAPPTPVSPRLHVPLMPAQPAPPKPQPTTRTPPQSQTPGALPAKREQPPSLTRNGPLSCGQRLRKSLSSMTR
Coagulation factor XII, sequence (P00748 373-615 limits assumed): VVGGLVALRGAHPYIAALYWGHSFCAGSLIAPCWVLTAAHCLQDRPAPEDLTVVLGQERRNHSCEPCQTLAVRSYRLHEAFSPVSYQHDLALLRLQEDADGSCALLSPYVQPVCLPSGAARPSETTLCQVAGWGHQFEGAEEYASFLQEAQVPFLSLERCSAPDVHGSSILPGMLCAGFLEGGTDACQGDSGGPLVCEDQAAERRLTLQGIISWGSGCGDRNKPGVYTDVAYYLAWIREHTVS
Tissue-type plasminogen activator, sequence (P00750 whole entry): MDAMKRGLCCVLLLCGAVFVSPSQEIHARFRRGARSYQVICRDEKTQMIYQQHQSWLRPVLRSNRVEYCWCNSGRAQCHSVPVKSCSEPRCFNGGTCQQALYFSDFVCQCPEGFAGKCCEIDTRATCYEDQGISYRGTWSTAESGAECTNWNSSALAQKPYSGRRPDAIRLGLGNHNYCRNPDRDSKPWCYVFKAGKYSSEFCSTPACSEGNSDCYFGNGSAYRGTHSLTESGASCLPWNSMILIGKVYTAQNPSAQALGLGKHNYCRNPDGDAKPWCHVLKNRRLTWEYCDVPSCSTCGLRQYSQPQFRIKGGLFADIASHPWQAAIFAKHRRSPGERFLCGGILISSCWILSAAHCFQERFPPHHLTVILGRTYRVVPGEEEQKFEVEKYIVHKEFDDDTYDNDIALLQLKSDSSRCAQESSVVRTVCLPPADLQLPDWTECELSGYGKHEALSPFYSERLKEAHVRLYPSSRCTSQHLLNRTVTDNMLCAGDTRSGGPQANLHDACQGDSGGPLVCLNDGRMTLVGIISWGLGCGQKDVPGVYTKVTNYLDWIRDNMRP
Complement factor B, sequence (P00751 whole entry): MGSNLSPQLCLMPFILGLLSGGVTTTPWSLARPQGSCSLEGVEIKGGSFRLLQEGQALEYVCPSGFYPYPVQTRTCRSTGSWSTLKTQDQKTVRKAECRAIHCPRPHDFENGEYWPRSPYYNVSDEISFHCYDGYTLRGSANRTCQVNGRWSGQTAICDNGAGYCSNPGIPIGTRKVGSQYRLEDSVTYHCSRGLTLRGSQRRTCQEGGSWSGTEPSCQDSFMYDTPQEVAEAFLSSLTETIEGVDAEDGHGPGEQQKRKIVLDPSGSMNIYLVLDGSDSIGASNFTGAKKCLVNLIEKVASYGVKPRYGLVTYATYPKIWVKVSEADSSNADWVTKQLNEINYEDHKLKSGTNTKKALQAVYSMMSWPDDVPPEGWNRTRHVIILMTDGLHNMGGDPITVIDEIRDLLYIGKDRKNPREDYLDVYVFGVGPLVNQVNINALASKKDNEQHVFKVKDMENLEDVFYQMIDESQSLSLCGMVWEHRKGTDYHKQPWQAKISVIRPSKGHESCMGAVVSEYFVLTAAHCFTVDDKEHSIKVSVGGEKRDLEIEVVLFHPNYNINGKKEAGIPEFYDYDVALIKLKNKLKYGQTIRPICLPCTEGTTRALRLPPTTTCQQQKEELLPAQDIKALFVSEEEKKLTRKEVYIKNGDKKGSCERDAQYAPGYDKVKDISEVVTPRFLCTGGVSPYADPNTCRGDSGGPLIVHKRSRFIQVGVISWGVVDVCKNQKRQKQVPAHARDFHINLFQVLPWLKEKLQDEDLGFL

Structure (SMILES): Nc1nc(N)c(CCCC(C(=O)c2nc3ccccc3o2)c2ccc(C(=O)N[C@@H](CCC(=O)O)C(=O)O)cc2)c(=O)[nH]1 (stereo not given in full)
Ki [1]: 600 nM

Structure (SMILES): CC(C)C[C@H](NC(=O)OC(C)(C)C)C(=O)N[C@@H](CC(C)C)C(=O)c1ncc[nH]1
inhibition [2]: 77%

Structure (SMILES): O=C(CCCc1ccccc1)c1nc2ncccc2o1
Selectivity ratio [3]: > 10000
Selectivity ratio [4]: > 10000
Selectivity ratio [5]: > 10000
Selectivity ratio [6]: 10
Ki [7]: 6.9 nM

Structure (SMILES): NC(N)=NCCC[C@H](NC(=O)CNC(=O)[C@@H](CCCN=C(N)N)NS(=O)(=O)CCc1ccccc1)C(=O)c1nc2ccccc2o1
IC50 (Plasminogen): 36 nM
IC50 [13]: 29 nM
IC50 (Plasma kallikrein): 13 nM
IC50 (Coagulation factor X): 2 nM

Structure (SMILES): CC[C@H](C)[C@H](NC(=O)[C@@H](Cc1ccccc1)NS(=O)(=O)Cc1ccccc1)C(=O)N[C@@H](CCCN=C(N)N)C(=O)c1nccs1
IC50 (Coagulation factor VII): 300 nM
IC50 (Prothrombin): 19000 nM
IC50 (Coagulation factor X): 380 nM

Structure (SMILES): CC[C@@H](C=O)NC(=O)[C@@H]1C[C@@H](OCc2ccccc2)CN1C(=O)[C@@H](NC(=O)[C@@H](NC(=O)c1cnccn1)C(C)C)C(C)C (Pyrazinecarbonyl-VV[Hyp](Bn)[Abu]-aldehyde)
Ki [12]: 16000 nM

Structure (SMILES): CC(C)C[C@H](NC(=O)OCc1ccccc1)C(=O)NCC(=O)N1CCC[C@H]1C(=O)c1nc2ccccc2s1
IC50 [21]: 200 nM

Structure (SMILES): O=C(C1=NOC(COCc2ccccc2)C1)[C@@H]1CCCN1C(=O)[C@@H]1CCCN1C(=O)OCc1ccccc1 (stereo not given in full)
Ki [21]: 1.2 nM

Structure (SMILES): CN[C@H](Cc1ccccc1)C(=O)N1CCC[C@H]1C(=O)N[C@@H](CCCNC(=N)N)C(=O)c1nc2ccc(C(=O)O)cc2s1
IC50 (Platelet): 30 nM
ED50 (Canis familiaris): 0.1 mg/kg

Structure (SMILES): CC(=O)N1C[C@H](O)C[C@H]1C(=O)N[C@@H](CCCN=C(N)N)C(=O)c1nc2ccccc2s1
Selectivity ratio [14]: > 500
Selectivity ratio [8]: > 500
Ki [9]: 10 nM
Selectivity ratio [15]: > 500
Selectivity ratio [17]: 200
Selectivity ratio [28]: 30

Structure (SMILES): N=C(N)N1CCC[C@@H](C[C@H](NC(=O)CN2C(=O)CN(CCCc3ccccc3)C(=O)[C@@H]2Cc2ccccc2)C(=O)c2nccs2)C1
inhibition (Trypsin): 80%

Structure (SMILES): CSCCC(N)C(=O)c1nccs1 (racemic)
IC50 [31]: 19000 nM

Structure (SMILES): CSCCC(N)C(=O)c1ccccn1 (racemic)
IC50 [31]: 16000 nM

More lines, main results first:

IC50 (Plasma kallikrein): 14 nM
IC50 (Coagulation factor XII): 50 nM
Structure (SMILES): NC(N)=NCCC[C@H](NC(=O)CNC(=O)[C@@H](CCCN=C(N)N)NS(=O)(=O)Cc1ccccc1)C(=O)c1nccs1

Selectivity ratio [8]: > 1000
Ki [9]: 3 nM
Selectivity ratio (Homo sapiens [10]): > 50
Selectivity ratio (Homo sapiens [11]): > 1000
Structure (SMILES): CCOC(=O)N[C@@H](CCCCN)C(=O)c1noc(Cc2ccc(C(=O)NC3Cc4ccccc4C3)cc2)n1

Ki [12]: 35000 nM
Structure (SMILES): CC[C@H](NC(=O)[C@@H]1C[C@@H](OCc2ccccc2)CN1C(=O)[C@@H](NC(=O)[C@@H](NC(=O)c1cnccn1)C(C)C)C(C)C)C(=O)c1nnc(-c2ccccc2)o1

Ki [1]: 1800 nM
Structure (SMILES): Nc1nc(N)c(CCCC(c2ccc(C(=O)N[C@@H](CCC(=O)O)C(=O)O)cc2)C(O)c2nc3ccccc3o2)c(=O)[nH]1 (stereo not given in full)

Ki (Chymase): 23 nM
Structure (SMILES): COC(=O)c1ccc2oc(C(=O)[C@H](Cc3ccccc3)NC(=O)Cn3c(-c4ccc(F)cc4)ncc(N)c3=O)nc2c1

Selectivity ratio [3]: > 10000
Selectivity ratio [4]: > 10000
Selectivity ratio [5]: > 10000
Selectivity ratio [6]: 10
Structure (SMILES): O=C(CCCCCc1ccccc1)c1nc2ncccc2o1

IC50 (Platelet): 30 nM
Selectivity ratio [14]: 12000
Selectivity ratio [8]: 2400
Ki [9]: 6.5 nM
Selectivity ratio [15]: 23000
Ratio Ki [16]: 15
Selectivity ratio [17]: 23000
Structure (SMILES): CN[C@H](Cc1ccccc1)C(=O)N1CCC[C@H]1C(=O)N[C@@H](CCCN=C(N)N)C(=O)c1nc2ccccc2s1

IC50 (Complement factor B): 3400 nM
Structure (SMILES): CC[C@H](C)[C@H](N)C(=O)N[C@H]1CSSC[C@@H](C(=O)N[C@H](C(N)=O)[C@@H](C)O)NC(=O)[C@H](CCCN=C(N)N)NC(=O)[C@H](Cc2cnc[nH]2)NC(=O)[C@H](Cc2cnc[nH]2)NC(=O)CNC(=O)[C@H](Cc2c[nH]c3ccccc23)NC(=O)[C@H](CC(=O)O)NC(=O)[C@H](CCC(N)=O)NC(=O)[C@H](C(C)C)NC(=O)[C@H](C(C)C)NC1=O [COMPSTATIN]

bioavailability [18]: 20%
Ki (Chymase): 4.8 nM
Selectivity ratio [19]: 200
Selectivity ratio [20]: 80
Structure (SMILES): COC(=O)c1ccc2oc(C(=O)[C@H](Cc3ccccc3)NC(=O)Cn3c(-c4cccc(OC)c4)ncc(N)c3=O)nc2c1

Selectivity ratio (Homo sapiens [22]): > 100
Selectivity ratio (Homo sapiens [23]): > 100
Selectivity ratio (Homo sapiens [24]): > 100
Structure (SMILES): O=C(N[C@H](C(=O)c1nc2ccccc2o1)C1CC1)O[C@@H](CC1CCCCC1)C(=O)N1CCOCC1

Selectivity ratio [25]: > 1000
Selectivity ratio [26]: > 1000
Selectivity ratio [27]: > 1000
Structure (SMILES): Cc1cccc(Cc2nnc(C(=O)[C@@H](NC(=O)[C@@H]3CCCN3C(=O)[C@@H](NC(=O)OCc3ccccc3)C(C)C)C(C)C)o2)c1

Tmax [29]: 36 min
bioavailability [30]: 50%
Structure (SMILES): CC(C)C(NC(=O)Cn1c(-c2ccccc2)ncc(N)c1=O)C(=O)c1nnc(C(C)(C)C)o1 (racemic)
ED50 (Hamster): 5.1 mg/kg

inhibition [2]: 54%
Structure (SMILES): CC(C)C[C@H](NC(=O)OCc1ccccc1)C(=O)N[C@@H](CC(C)C)C(=O)N[C@@H](Cc1ccccc1)C(=O)c1nccs1

bioavailability [18]: 8%
Selectivity ratio [32]: > 1000
Ki [9]: 5 nM
Selectivity ratio [33]: 35
Selectivity ratio [28]: > 1000
Selectivity ratio [34]: 80
Selectivity ratio (Homo sapiens [11]): > 1000
Structure (SMILES): CCOC(=O)N[C@@H](CCCCN)C(=O)c1noc(Cc2ccc(OCCc3ccccc3)cc2)n1
